A value given as a limit tells only on which side of the number the result lay.

2 compounds from article PMC6197744, “Triazolo[4,5-d]pyrimidines as Validated General Control Nonderepressible 2 (GCN2) Protein Kinase Inhibitors Reduce Growth of Leukemia Cells” (Computational and Structural Biotechnology Journal, 2018) can be followed below.

Test [1] deals with T1, HRI (Homo sapiens, UniProt Q9BQI3).
T1 construct: purchased Reaction Biology Corporation (Malvern, PA)
As to the kind of experiment: radiometric HotSpot kinase assay. The class given is biochemical. As to conditions: 10 μM compound, 10 μM ATP; read-out: % Enzyme inhibition at 10 μM, HRI. The method, then: (§1) Compounds 1–9 were screened in a radiometric […] kinase assay against human GCN2 and other kinases involved in the UPR and ISR pathways (Table 1). […] The most soluble of the potent tool compounds (1 and 2) were selected for in vitro cell-based assays where the phosphorylation of eIF2α (p-eIF2α) was used as a readout for GCN2 inhibition.
(§2) In vitro compound profiling for recombinant GCN2, PERK, HRI, PKR, or IRE1 kinases were performed at Reaction Biology Corporation (Malvern, PA) using the HotSpot kinase assay. Briefly, all compounds provided for testing were dissolved in 10 mM DMSO stock solutions. Serial dilutions were conducted by epMotion 5070 in DMSO. Specific kinase/substrate mixtures and required cofactors were prepared in reaction buffer (20 mM Hepes (pH 7.5), 10 mM MgCl2, 1 mM EGTA, 0.02% Brij35, 0.02 mg/ml BSA, 0.1 mM Na3VO4, 2 mM DTT, 1% DMSO). Compounds were added to the kinase reaction mixture by Acoustic technology (Echo550; nanoliter range) and incubated for 20 min at room temperature. The kinase reaction was initiated by adding ^33P ATP to a final concentration of 10 μM for single point kinase activity reading or to the ATP Km of GCN2 for IC50 readings. The reaction was incubated or 2 h at room temperature and kinase activity was detected by filter-binding method. IC50 values and curves were generated with GraphPad Prism 7 (GraphPad software).

For test [2], the target named is T2, IRE1 (Homo sapiens, UniProt O75460).
T2 construct: purchased Reaction Biology Corporation (Malvern, PA)
As to the kind of experiment: radiometric HotSpot kinase assay. The class given is biochemical. As to conditions: 10 μM compound, 10 μM ATP; read-out: % Enzyme inhibition at 10 μM, IRE1. The method, then:
as §1, §2

Test [3] addresses T3, PKR (Homo sapiens, UniProt P19525).
T3 construct: purchased Reaction Biology Corporation (Malvern, PA)
As to the kind of experiment: radiometric HotSpot kinase assay. The class given is biochemical. Conditions: for inhibition at 10 µM: 10 μM compound, 10 μM ATP, read-out: % Enzyme inhibition at 10 μM, PKR; for IC50: means of two independent experiments. As for the experimental part: as §1, §2

The subject of test [4] is phosphorylation of eIF2α (p-eIF2α). As to the kind of experiment: p-eIF2α reduction in amino acid deprived HEK293T cells (Western blot). The class given is cell-based. As to conditions: Homo sapiens, HEK-293T, amino acid deprived 4 h. As for the experimental part: as §1
HEK293T cells were purchased from the American Type Culture Collection and were cultured in Dulbecco's modified Eagle's medium (DMEM; GIBCO-11995) supplemented with 10% fetal bovine serum (FBS) (Corning™ 35015CV) and antibiotics (penicillin, 10,000 UI/ml and streptomycin, 10,000 UI/ml) (Life Technologies, 15,140,122). When indicated, cells were deprived of amino acids for 4 h with DMEM (DMEM; GIBCO-21013024) containing no glutamine, no methionine, no cysteine, and no FBS. Upon starvation, cells were treated with DMSO or compound. All cell lines were maintained in humidified incubators at 37 °C under 5% CO2.
Cells were lysed for 10 min on ice with RIPA lysis buffer (50 mM Tris (pH 8), 150 mM NaCl, 1% NP-40, 0.5% sodium deoxycholate, 0.1% SDS, containing Protease Inhibitor Cocktail (PIC) (ROCHE, 11836170001), 100 mM NaF, 2 mM NaVO4, 1 mM Na B-glycerophosphate). […] IC50s were calculated using dose response – Inhibition nonlinear regression algorithm [[inhibitor] vs. response] in GraphPad Prism 7 (GraphPad Software).

The target in test [5] is standard panel of 50 protein kinases. As to the kind of experiment: Broad kinase panel screen, whole panel. The class given is binding. Conditions: 0.5 μM. The method, then:
as §1
(§3) Compound 2 was screened against a standard panel of 50 protein kinases by Luceome Biotechnologies (Tucson, AZ). In brief, Compound 2 was dissolved and diluted in DMSO to a concentration of 12.5 μM from a 10 mM stock solution. As a control, compound 2 was evaluated for false positive against split-luciferase. For kinase assays, each C-terminal half of firefly luciferase linked kinase (Cfluc-Kinase) was translated along with the coiled coil Fos attached to the N-terminal fragment (Nfluc) (Fos-Nfluc) using rabbit reticulocyte lysate at 30 °C for 90 min. 24 µL aliquot of this lysate containing 1 µL of either DMSO or Compound 2 (at a final concentration 0.5 μM) was incubated for 30 minutes at room temperature followed by 1 hour incubation in the presence of a kinase specific probe. Finally, 80 µL of luciferin assay reagent was added and luminescence was immediately measured on a luminometer. Compound 2 was screened in duplicate against each kinase.
(§4) The % Inhibition and % Activity Remaining was calculated using the following equations: […]

In test [6] the target is T4, AAK1 (Homo sapiens, UniProt Q2M2I8).
T4 construct: purchased Luceome Biotechnologies
As to the kind of experiment: Broad kinase panel screen (split-luciferase). The class given is binding. As to conditions: AAK1, 0.5 uM. The method, then: as §3, §4

The target in test [7] is T5, ACVR2A/ACVR2 (Homo sapiens, UniProt P27037).
T5 construct: purchased Luceome Biotechnologies
As to the kind of experiment: Broad kinase panel screen (split-luciferase). The class given is binding. As to conditions: ACVR2A/ACVR2, 0.5 uM. As for the experimental part:
as §3, §4

Test [8] has as its target T6, AKT2 (Homo sapiens, UniProt P31751).
T6 construct: purchased Luceome Biotechnologies
As to the kind of experiment: Broad kinase panel screen (split-luciferase). The class given is binding. Conditions: AKT2, 0.5 uM. As for the experimental part: as §3, §4

Test [9] deals with T7, AURKC (Homo sapiens, UniProt Q9UQB9).
T7 construct: purchased Luceome Biotechnologies
As to the kind of experiment: Broad kinase panel screen (split-luciferase). The class given is binding. As for the experimental part: as §3, §4

The target in test [10] is T8, CLK2 (Homo sapiens, UniProt P49760).
T8 construct: purchased Luceome Biotechnologies
As to the kind of experiment: Broad kinase panel screen (split-luciferase). The class given is binding. As to conditions: CLK2, 0.5 uM. The method, then: as §3, §4

Test [11] deals with T9, EPHA5 (Homo sapiens, UniProt P54756).
T9 construct: purchased Luceome Biotechnologies
As to the kind of experiment: Broad kinase panel screen (split-luciferase). The class given is binding. As to conditions: EPHA5, 0.5 uM. As for the experimental part:
as §3, §4

Test [12] addresses T10, ITK (Homo sapiens, UniProt Q08881).
T10 construct: purchased Luceome Biotechnologies
As to the kind of experiment: Broad kinase panel screen (split-luciferase). The class given is binding. The method, then: as §3, §4

Test [13] has as its target T11, MAP3K11/MLK3 (Homo sapiens, UniProt Q16584).
T11 construct: purchased Luceome Biotechnologies
As to the kind of experiment: Broad kinase panel screen (split-luciferase). The class given is binding. As to conditions: MAP3K11/MLK3, 0.5 uM. As for the experimental part: as §3, §4

Test [14] deals with T12, MARK1 (Homo sapiens, UniProt Q9P0L2).
T12 construct: purchased Luceome Biotechnologies
As to the kind of experiment: Broad kinase panel screen (split-luciferase). As to conditions: MARK1, 0.5 uM. The class given is binding. As for the experimental part:
as §3, §4

The target in test [15] is T13, PKX/PRKX (Homo sapiens, UniProt P51817).
T13 construct: purchased Luceome Biotechnologies
As to the kind of experiment: Broad kinase panel screen (split-luciferase). The class given is binding. The method, then:
as §3, §4

Test [16] has as its target T14, SIK2 (Homo sapiens, UniProt Q9H0K1).
T14 construct: purchased Luceome Biotechnologies
As to the kind of experiment: Broad kinase panel screen (split-luciferase). The class given is binding. As to conditions: SIK2, 0.5 uM. The method, then: as §3, §4

T3 sequence (P19525 whole entry): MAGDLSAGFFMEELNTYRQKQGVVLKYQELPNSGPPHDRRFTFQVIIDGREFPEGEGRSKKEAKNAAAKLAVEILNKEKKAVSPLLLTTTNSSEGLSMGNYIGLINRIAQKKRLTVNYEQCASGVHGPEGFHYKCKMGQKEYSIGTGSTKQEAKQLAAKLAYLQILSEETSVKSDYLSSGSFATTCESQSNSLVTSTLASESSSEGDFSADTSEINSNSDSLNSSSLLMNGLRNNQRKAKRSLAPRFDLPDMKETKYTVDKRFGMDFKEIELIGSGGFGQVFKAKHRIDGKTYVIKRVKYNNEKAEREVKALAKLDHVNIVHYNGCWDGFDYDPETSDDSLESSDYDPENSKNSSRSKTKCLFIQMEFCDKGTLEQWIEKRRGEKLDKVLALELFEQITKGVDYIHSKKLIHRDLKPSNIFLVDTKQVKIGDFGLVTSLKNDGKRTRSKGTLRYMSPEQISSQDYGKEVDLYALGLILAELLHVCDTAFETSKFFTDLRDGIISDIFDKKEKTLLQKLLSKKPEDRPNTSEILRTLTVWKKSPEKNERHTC
T2 sequence (O75460 19-977): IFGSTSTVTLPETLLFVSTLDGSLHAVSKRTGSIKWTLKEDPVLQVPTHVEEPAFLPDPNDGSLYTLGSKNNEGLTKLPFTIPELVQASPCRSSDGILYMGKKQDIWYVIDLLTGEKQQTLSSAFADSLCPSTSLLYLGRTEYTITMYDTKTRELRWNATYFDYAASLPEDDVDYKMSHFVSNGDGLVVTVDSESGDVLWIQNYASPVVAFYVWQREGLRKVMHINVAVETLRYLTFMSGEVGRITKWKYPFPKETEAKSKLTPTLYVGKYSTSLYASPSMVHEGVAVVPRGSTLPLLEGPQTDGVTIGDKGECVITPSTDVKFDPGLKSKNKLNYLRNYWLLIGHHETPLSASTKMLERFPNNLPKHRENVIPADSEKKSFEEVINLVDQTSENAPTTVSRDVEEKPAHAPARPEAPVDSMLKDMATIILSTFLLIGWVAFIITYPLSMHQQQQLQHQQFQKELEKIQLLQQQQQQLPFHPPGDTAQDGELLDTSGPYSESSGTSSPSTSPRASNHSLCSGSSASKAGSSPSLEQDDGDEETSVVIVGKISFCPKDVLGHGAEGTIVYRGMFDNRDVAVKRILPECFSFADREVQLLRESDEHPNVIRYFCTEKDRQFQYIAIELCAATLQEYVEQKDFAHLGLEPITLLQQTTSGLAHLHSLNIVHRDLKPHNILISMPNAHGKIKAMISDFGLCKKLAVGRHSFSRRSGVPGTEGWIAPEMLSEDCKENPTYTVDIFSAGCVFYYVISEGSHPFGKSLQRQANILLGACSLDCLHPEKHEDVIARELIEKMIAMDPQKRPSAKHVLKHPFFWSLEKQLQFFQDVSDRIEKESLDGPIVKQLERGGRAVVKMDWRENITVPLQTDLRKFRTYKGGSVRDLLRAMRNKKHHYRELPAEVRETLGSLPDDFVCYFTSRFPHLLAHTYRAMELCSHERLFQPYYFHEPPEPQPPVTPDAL
T1 sequence (Q9BQI3 whole entry): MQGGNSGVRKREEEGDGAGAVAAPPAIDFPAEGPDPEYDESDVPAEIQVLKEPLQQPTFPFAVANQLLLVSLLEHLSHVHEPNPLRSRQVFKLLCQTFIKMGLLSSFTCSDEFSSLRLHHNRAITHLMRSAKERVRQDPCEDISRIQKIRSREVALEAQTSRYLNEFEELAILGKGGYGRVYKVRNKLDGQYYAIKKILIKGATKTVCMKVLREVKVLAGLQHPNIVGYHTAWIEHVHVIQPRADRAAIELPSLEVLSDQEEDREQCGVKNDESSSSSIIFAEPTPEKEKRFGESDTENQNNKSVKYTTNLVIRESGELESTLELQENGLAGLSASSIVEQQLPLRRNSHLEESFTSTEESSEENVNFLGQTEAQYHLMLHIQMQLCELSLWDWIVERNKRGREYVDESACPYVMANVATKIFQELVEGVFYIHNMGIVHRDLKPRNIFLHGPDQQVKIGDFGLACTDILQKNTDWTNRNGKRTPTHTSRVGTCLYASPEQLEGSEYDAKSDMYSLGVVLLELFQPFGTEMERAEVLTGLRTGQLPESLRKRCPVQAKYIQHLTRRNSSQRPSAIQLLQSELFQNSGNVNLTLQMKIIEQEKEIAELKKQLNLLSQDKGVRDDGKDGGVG
T6 sequence (P31751 whole entry): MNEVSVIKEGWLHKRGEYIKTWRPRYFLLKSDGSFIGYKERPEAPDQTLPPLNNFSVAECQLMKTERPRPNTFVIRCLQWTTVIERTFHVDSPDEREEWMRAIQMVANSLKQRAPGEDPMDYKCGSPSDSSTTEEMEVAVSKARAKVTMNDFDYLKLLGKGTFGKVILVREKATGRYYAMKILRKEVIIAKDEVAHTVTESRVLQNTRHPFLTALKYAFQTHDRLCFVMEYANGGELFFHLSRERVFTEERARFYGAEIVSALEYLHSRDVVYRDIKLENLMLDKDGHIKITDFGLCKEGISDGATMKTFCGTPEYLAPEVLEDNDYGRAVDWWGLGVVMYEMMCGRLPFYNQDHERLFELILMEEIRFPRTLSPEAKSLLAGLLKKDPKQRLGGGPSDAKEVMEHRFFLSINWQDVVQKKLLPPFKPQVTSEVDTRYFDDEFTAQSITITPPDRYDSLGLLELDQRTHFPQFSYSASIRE
T14 sequence (Q9H0K1 whole entry): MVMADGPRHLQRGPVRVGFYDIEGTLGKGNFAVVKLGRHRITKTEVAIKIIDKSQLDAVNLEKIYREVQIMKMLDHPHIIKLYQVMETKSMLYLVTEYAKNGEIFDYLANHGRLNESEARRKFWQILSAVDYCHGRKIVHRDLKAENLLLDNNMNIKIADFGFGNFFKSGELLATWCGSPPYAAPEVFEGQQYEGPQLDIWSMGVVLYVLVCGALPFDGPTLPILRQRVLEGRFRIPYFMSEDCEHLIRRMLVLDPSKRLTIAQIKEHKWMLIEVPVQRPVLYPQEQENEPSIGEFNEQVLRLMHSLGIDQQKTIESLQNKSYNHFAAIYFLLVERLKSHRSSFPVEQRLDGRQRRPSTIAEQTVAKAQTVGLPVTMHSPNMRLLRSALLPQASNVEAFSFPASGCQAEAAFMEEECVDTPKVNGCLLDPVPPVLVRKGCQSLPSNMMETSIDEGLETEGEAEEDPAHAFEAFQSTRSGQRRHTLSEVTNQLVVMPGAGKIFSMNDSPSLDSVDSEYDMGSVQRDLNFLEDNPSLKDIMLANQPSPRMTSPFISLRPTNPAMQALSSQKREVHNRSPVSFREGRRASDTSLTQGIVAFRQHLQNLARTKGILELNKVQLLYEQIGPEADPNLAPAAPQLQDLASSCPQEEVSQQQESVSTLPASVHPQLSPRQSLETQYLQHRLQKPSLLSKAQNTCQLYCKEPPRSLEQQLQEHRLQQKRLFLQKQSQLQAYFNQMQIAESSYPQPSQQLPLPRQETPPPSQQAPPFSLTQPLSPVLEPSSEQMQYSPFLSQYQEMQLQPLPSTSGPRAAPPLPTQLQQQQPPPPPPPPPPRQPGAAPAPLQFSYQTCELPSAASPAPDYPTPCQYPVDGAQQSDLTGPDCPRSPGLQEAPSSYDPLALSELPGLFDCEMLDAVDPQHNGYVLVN
T10 sequence (Q08881 whole entry): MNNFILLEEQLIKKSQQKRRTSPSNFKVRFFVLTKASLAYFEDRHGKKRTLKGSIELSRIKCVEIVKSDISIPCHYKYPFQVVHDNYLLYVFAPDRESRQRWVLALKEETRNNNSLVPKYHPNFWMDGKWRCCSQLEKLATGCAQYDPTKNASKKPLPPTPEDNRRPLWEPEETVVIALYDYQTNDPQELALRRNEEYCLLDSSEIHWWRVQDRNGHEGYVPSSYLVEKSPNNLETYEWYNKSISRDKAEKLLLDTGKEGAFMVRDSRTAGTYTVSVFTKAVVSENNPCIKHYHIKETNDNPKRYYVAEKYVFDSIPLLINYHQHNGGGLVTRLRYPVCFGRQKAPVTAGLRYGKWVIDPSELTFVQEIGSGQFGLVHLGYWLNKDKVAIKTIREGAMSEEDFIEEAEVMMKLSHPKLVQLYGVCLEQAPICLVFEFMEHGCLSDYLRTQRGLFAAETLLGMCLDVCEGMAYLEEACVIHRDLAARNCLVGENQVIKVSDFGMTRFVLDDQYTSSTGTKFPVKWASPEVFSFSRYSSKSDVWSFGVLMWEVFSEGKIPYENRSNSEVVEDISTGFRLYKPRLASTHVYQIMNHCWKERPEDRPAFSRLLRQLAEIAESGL
T13 sequence (P51817 whole entry): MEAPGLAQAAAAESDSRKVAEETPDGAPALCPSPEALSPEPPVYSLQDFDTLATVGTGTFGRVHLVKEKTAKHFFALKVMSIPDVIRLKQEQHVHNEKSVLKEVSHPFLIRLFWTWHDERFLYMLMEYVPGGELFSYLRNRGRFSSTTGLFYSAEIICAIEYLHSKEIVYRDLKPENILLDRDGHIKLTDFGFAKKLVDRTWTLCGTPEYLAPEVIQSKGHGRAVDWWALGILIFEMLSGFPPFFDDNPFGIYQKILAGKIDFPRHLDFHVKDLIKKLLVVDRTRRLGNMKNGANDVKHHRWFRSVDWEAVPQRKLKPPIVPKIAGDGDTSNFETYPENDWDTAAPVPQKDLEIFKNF
T7 sequence (Q9UQB9 whole entry): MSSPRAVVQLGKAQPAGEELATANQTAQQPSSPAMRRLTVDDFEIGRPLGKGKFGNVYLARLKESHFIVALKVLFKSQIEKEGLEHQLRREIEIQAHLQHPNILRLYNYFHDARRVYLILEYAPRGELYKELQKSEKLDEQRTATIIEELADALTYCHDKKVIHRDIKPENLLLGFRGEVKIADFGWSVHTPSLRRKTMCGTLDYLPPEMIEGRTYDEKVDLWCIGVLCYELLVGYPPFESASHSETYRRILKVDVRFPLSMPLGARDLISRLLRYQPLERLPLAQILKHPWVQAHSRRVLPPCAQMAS

As for `CCn1cc(Nc2ncc3nnn(-c4ccc(C(=O)OC)cc4)c3n2)cn1` [Compound 1, Methyl 4-(5-((1-ethyl-1H-pyrazol-4-yl)amino)-3H-[1,2,3]triazolo[4,5-d]pyrimidin-3-yl)benzoate], the results for the inhibition at 10 µM in [1], in test [2] and in test [3] were 14%, 37% and 93%, respectively. Besides, the IC50 in test [3] worked out at 119 nM; in test [4], 52.6 nM.

Consider `CCOc1ccc(-n2nnc3cnc(Nc4cnn(CC)c4)nc32)cc1` [Compound 2, 3-(4-Ethoxyphenyl)-N-(1-ethyl-1H-pyrazol-4-yl)-3H-[1,2,3]triazolo[4,5-d]pyrimidin-5-amine], for which the figures for the inhibition at 10 µM in test [1], in test [2] and in test [3] were under 10%, 20% and 99%, respectively. In addition, the IC50 amounted to 39.9 nM in test [3] and 138 nM in test [4]. The “kinase inhibition in standard broad kinase panel (in words)” value in test [5] is recorded as “no significant kinase inhibition”. Besides, the remaining activity at 0.5 µM in test [6] was 73.5%; in test [7], 100%; in [8], 96.8%; in test [9], 98.7%; in test [10], 93%; in test [11], 97.8%. Also, the remaining activity at 0.5 µM was determined as 89.9% in test [12]; 100% in test [13]; 100% in test [14]; 97.7% in test [15]; 100% in [16].
